Literature values as cited in publication PMC11949389 (Polish Journal of Microbiology, 2025).
Converted amounts (≈) assume the structure as drawn. Like-named read-outs stand apart in the source and are kept apart here.

How the values were obtained:
[1] = system: Enterococcus sp.; conditions: ref Caballero Gómez et al. 2022
[2] = system: Vibrio anguillarum, and Vibrio harveyi; conditions: ref Rossi et al. (2021)
[3] = system: Enterococcus, Pseudomonas, and Staphylococcus strains; conditions: ref Caballero Gómez et al. (2022)
[4] = system: Vibrio harveyi; conditions: ref Rossi et al. 2021
[5] = system: Streptococcus suis; conditions: ref de Aguiar et al. 2019
[6] = system: Staphylococcus sp.; conditions: ref Caballero Gómez et al. 2022
[7] = system: Vibrio anguillarum; conditions: ref Rossi et al. 2021
[8] = system: Malassezia pachydermatis; conditions: ref Schlemmer et al. 2019, Sim et al. 2019
[9] = system: Pseudomonas sp.; conditions: ref Caballero Gómez et al. 2022
[10] = system: bacteria co-isolated with C. albicans; conditions: ref Touil et al. (2020)
[11] = system: Vancomycin-resistant Enterococcus (VRE); conditions: vancomycin-resistant enterococci strains; ref Owen et al. (2019)
[12] = system: Methicillin-susceptible Staphylococcus aureus; conditions: ref Owen et al. 2019
[13] = system: Vancomycin-sensitive Enterococcus (VSE)
[14] = system: amphotericin B-resistant C. albicans; conditions: varying among Candida isolates; ref Touil et al. (2020)
[15] = system: Escherichia coli; conditions: antibiotic-sensitive E. coli; ref Owen et al. (2019)
[16] = system: Ciprofloxacin-resistant Escherichia coli; conditions: resistant E. coli strains; ref Owen et al. (2019)
[17] = system: C. albicans and co-isolated bacteria; conditions: carvacrol combined with cuminaldehyde; ref Touil et al. (2020)
[18] = system: Acinetobacter baumannii; conditions: ref Choudhary et al. 2022
[19] = system: bovine mastitis; conditions: versus antibiotic treatment, ref Guo et al. 2023
[20] = system: Klebsiella pneumoniae; conditions: ref Sayout et al. 2020, de Souza et al. 2021, Kwiatkowski et al. 2022
[21] = system: Salmonella spp.; conditions: ref Sayout et al. 2020
[22] = system: Pseudomonas aeruginosa
[23] = system: Enterobacter aerogenes; conditions: ref Sayout et al. 2020
[24] = system: Acinetobacter baumannii; conditions: for MIC/Sensitivity: ref Sayout et al. 2020
[25] = system: Mupirocin-susceptible Staphylococcus aureus; conditions: ref Kwiatkowski et al. 2019
[26] = system: Enterobacter cloacae; conditions: ref Sayout et al. 2020
[27] = system: Ciprofloxacin-resistant Pseudomonas aeruginosa; conditions: resistant P. aeruginosa strains; ref Owen et al. (2019)
[28] = system: Mupirocin-resistant Staphylococcus aureus; conditions: ref Kwiatkowski et al. 2019
[29] = system: Staphylococcus aureus; conditions: for MIC/Sensitivity: Staphylococcus aureus, ref Kwiatkowski et al. 2020, Sayout et al. 2020, Sousa Silveira et al. 2020, Macêdo et al. 2022, Noumi et al. 2023, Sharma et al. 2023; for MIC: S. aureus
[30] = system: Klebsiella oxytoca; conditions: ref Sayout et al. 2020
[31] = system: HIV-1; conditions: HIV-1; ref Mediouni et al. (2020)
[32] = system: Candida species; conditions: ref Stringaro et al. (2022)
[33] = system: Candida auris; conditions: Candida auris; ref Shaban et al. 2020
[34] = system: Candida auris; conditions: ref Shaban et al. 2020
[35] = system: TetK efflux pump; conditions: S. aureus, ref Sousa Silveira et al. (2020)
[36] = system: staphylococcal isolates; conditions: ref Sim et al. 2019
[37] = system: Candida glabrata; conditions: Candida glabrata; ref Sharifzadeh et al. 2019; Iraji et al. 2020; Biernasiuk et al. 2022; Stringaro et al. 2022
[38] = system: Staphylococcus pseudintermedius; conditions: Staphylococcus pseudintermedius; ref Sim et al. 2019
[39] = system: Salmonella Typhimurium; conditions: ref Giovagnoni et al. (2020)
[40] = system: Salmonella Thyphimurium; conditions: ref Giovagnoni et al. 2020
[41] = system: Candida albicans; conditions: Candida albicans; ref Sharifzadeh et al. 2019; Iraji et al. 2020; Shaban et al. 2020; Stringaro et al. 2022; Biernasiuk et al. 2022
[42] = system: Candida tropicalis; conditions: Candida tropicalis; ref Iraji et al. 2020; Stringaro et al. 2022
[43] = system: Campylobacter jejuni; conditions: for MIC/Sensitivity: Campylobacter jejuni, ref Šimunović et al. 2020; for MIC: ref Šimunović et al. (2020)
[44] = system: Proteus mirabilis; conditions: ref Sim et al. 2019
[45] = system: Candida albicans; conditions: ref Shaban et al. 2020
[46] = system: β-haemolytic Streptococcus spp.; conditions: ref Sim et al. 2019
[47] = system: Candida krusei; conditions: Candida krusei; ref Sharifzadeh et al. 2019; Iraji et al. 2020; Biernasiuk et al. 2022; Stringaro et al. 2022
[48] = system: Chikungunya virus (CHIKV); conditions: ref Kumar et al. (2021)
[49] = system: influenza H1N1; conditions: 20 μg/ml; ref Panagiotopoulos et al. (2021)
[50] = system: Campylobacter jejuni
[51] = system: Methicillin-resistant Staphylococcus aureus; conditions: Methicillin-resistant Staphylococcus aureus; ref Owen et al. 2019

O=C/C=C/c1ccccc1 [Cinnamaldehyde]
MIC/Sensitivity [1]: 0.01 to 0.05 mg/mL | MIC [2]: 0.94 to 7.5 mM | MIC [3]: 0.01 to 0.05 mg/mL | MIC/Sensitivity [4]: 278.616 mg/mL (≈ 2110 mM) | MIC/Sensitivity [5]: 0.15625 to 0.3125 mg/mL | MIC/Sensitivity [6]: 0.01 to 0.05 mg/mL | MIC/Sensitivity [7]: 555.75 mg/mL (≈ 4210 mM) | MIC/Sensitivity [8]: 0.0025 to 0.64 mg/mL | MIC/Sensitivity [9]: 0.01 to 0.05 mg/mL

CC(C)c1ccc(C=O)cc1 [Cuminaldehyde]
MIC [10]: 1,000–4,000 μg/ml | MIC [11]: 537.65 mM (≈ 79700 µg/mL) | MIC/Sensitivity [12]: 4979.52 mg/mL (≈ 33600 mM) | MIC ([13]; vancomycin-susceptible enterococci (VSE), ref Owen et al. (2019)): 134.41 mM (≈ 19900 µg/mL) | MIC [14]: 2 to 4 mg/mL | MIC [15]: 2.10 mM (≈ 311 µg/mL) | MIC [16]: 8.40 mM (≈ 1240 µg/mL) | MIC in combination [17]: 500–2,000 μg/ml

CC(C)=CCC/C(C)=C/CO [Geraniol]
MIC/Sensitivity [1]: 0.1 to 0.35 mg/mL | Mechanisms of action [18]: • Reduction in exopolysaccharide production • Disruption and inhibition of biofilm • Downregulation of csuE gene | MIC [2]: 0.94 to 7.5 mM | therapeutic effect [19]: equivalent therapeutic effects | MIC/Sensitivity [6]: 0.1 to 0.4 mg/mL | MIC/Sensitivity [20]: 1.74 mg/mL (≈ 11.3 mM) | MIC/Sensitivity [9]: 0.1 to 0.4 mg/mL

C=CC(C)(O)CCC=C(C)C (centres unmarked) [Linalool]
MIC/Sensitivity [21]: 0.00288 mg/mL (≈ 0.0187 mM) | MIC ([22]; antibiotic-sensitive P. aeruginosa, ref Owen et al. (2019)): 228.20 mM (≈ 35200 µg/mL) | MIC/Sensitivity [23]: 0.00144 mg/mL (≈ 0.00934 mM) | MIC/Sensitivity [24]: 0.00144 mg/mL (≈ 0.00934 mM) | activity at the tested concentrations [2]: no activity | MIC/Sensitivity [25]: 6.8 mg/mL (≈ 44.1 mM) | MIC/Sensitivity [26]: 0.00192 mg/mL (≈ 0.0124 mM) | MIC [27]: 912.90 mM (≈ 141000 µg/mL) | MIC/Sensitivity [28]: 2.83 mg/mL (≈ 18.3 mM) | reduction in vancomycin’s MIC ([13]; binary combinations with vancomycin, VSE, ref Owen et al. (2020)): four to eight-fold reduction | MIC/Sensitivity [29]: 0.00288 to 6.8 mg/mL | MIC/Sensitivity [20]: 0.00383 mg/mL (≈ 0.0248 mM) | MIC/Sensitivity [30]: 0.00144 mg/mL (≈ 0.00934 mM)

Cc1ccc(C(C)C)c(O)c1 [Thymol]
MIC/Sensitivity [1]: 0.2 to 0.45 mg/mL | IC50 [31]: 25.2 µM | MIC [32]: 0.195 to 0.39 mg/mL | MIC90 ([22]; P. aeruginosa, ref Sim et al. 2019): 0.8 mg/mL (≈ 5.33 mM) | MIC/Sensitivity ([22]; Pseudomonas aeruginosa, ref Owen et al. 2019, Sim et al. 2019, Noumi et al. 2023): 0.4 to 0.8 mg/mL | MIC [33]: 0.312 mg/mL (≈ 2.08 mM) | MIC/Sensitivity [33]: 0.312 mg/mL (≈ 2.08 mM) | Mechanisms of action [34]: • Reduced proteinase production and host cell adherence | FICI ([24]; combined with ciprofloxacin, ref Aleksic Sabo et al. (2021)): 0.25–0.32 | MIC [2]: 0.94 to 7.5 mM | efflux pump inhibition [35]: did not act as efflux pump inhibitors | MIC90 [36]: 0.146 to 0.2 mg/mL | MIC/Sensitivity [37]: 0.39 mg/mL (≈ 2.6 mM) | MIC/Sensitivity [5]: 0.15625 mg/mL (≈ 1.04 mM) | MIC/Sensitivity [38]: 0.1 to 0.2 mg/mL | MIC [39]: 1.87 mM (≈ 281 µg/mL) | Mechanisms of action [40]: • Anti-inflammatory effects • Anti-oxidant properties • Enhanced epithelial barrier integrity • Reduction of bacterial translocation • Improved transepithelial electrical resistance • Inhibited bacterial growth | MIC/Sensitivity [41]: 0.195 to 0.625 mg/mL | MIC/Sensitivity [6]: 0.2 to 0.4 mg/mL | MIC ([29]; ref Sharma et al. (2023)): 0.125 to 0.25 mg/mL | MIC ([29]; ref Sousa Silveira et al. (2020)): 0.072 mg/mL (≈ 0.479 mM) | MIC/Sensitivity [29]: 0.072 to 0.8 mg/mL | MIC/Sensitivity [42]: 0.39 mg/mL (≈ 2.6 mM) | MIC/Sensitivity [8]: 0.01 to 0.8 mg/mL | MIC/Sensitivity [43]: 0.03125 mg/mL (≈ 0.208 mM) | MIC [43]: 31.25 µg/mL (≈ 0.208 mM) | MIC/Sensitivity [20]: 0.78 mg/mL (≈ 5.19 mM) | MIC90 [44]: 0.2 to 0.292 mg/mL | MIC/Sensitivity [44]: 0.2 mg/mL (≈ 1.33 mM) | Mechanisms of action [45]: • Reduced proteinase production | MIC/Sensitivity ([46]; β-haemolytic Streptococcus spp.): 0.2 to 0.4 mg/mL | MIC90 ([46]; β-hemolytic Streptococcus): 0.292 to 0.4 mg/mL | MIC/Sensitivity [47]: 0.39 mg/mL (≈ 2.6 mM) | MIC/Sensitivity [9]: 0.1 to 0.3 mg/mL

CC1=CC(=O)C(C(C)C)=CC1=O [Thymoquinone]
MIC/Sensitivity [43]: 0.03125 mg/mL (≈ 0.19 mM) | MIC [43]: 31.25 µg/mL (≈ 0.19 mM) | EC50 ([48]; CHIKV replication): 4.48 µM | reduction of CHIKV titer ([48]; plaque reduction assay, 20 μM): over 90%

Cc1ccc(C(C)C)cc1 [p-Cymene]
effect on influenza H1N1 [49]: reduced virus protein expression and impaired nuclear translocation | efflux pump inhibition ([50]; C. jejuni, ref Šimunović et al. (2020)): inhibited efflux pumps | Mechanisms of action ([50]; Campylobacter jejuni, ref Šimunović et al. 2020): • Inhibition of efflux pump | MIC/Sensitivity [24]: 0.00513 mg/mL (≈ 0.0382 mM) | MIC/Sensitivity [12]: 1075.1022 mg/mL (≈ 8010 mM) | MIC/Sensitivity [26]: 0.0041 mg/mL (≈ 0.0305 mM) | MIC/Sensitivity [51]: 2150.2044 mg/mL (≈ 16000 mM) | MIC/Sensitivity [29]: 0.01025 mg/mL (≈ 0.0764 mM) | MIC/Sensitivity [43]: 1 mg/mL (≈ 7.45 mM) | MIC [43]: 1,000 μg/ml | MIC/Sensitivity [20]: 0.01025 mg/mL (≈ 0.0764 mM)
